Experimental findings from patent US10144706B2 (BRISTOL-MYERS SQUIBB COMPANY, priority 2016, dated 2018) are described below.

In the assay the target is T1, PD-1/PD-L1 interaction (PD-1-Ig / PD-L1-His) (Homo sapiens, UniProt Q9NZQ7).
T1 construct: hPDL1(18-239)-TVMV-His; TVMV protease site linker (C); made in house; host or cells: HEK293T
The assay can be described thus: PD-1/PD-L1 Homogenous Time-Resolved Fluorescence (HTRF) binding assay. To be noted: PD-L1-His 10 nM, PD-1-Ig 20 nM, read-out: Range or IC50. The essentials: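 Human PD-L1-His (10 nM final) was pre-incubated with inhibitor for 15 min, then PD-1-Ig (20 nM final) was added for a further 15 min in dPBS with 0.1% BSA and 0.05% Tween-20. Binding was detected by HTRF using Eu-cryptate anti-Ig (1 nM) and APC anti-His (20 nM).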
Background: In TR-FRET formats the signal depends on donor and acceptor labels being close together.

Counter-ions that a name gives are not always drawn. Like-named read-outs stand apart in the source and are kept apart here.

T1 sequence (Q9NZQ7 with tags, fused parts or gaps): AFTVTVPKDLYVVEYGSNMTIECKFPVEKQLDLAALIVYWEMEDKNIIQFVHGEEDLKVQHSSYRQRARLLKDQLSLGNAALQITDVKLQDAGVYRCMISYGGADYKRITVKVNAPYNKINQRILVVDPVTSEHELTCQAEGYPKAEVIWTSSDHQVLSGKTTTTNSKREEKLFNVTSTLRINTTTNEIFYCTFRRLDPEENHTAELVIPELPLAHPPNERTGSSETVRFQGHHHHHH

Turning to `Cc1c(OCCCN2CC[C@@H](O)C2)cccc1-c1cccc(C(=O)NCCN2CC[C@@H](O)C2)c1C` [Example 3015, N-(2-((R)-3-hydroxypyrrolidin-1-yl)ethyl)-3′-(3-((R)-3-hydroxypyrrolidin-1-yl)propoxy)-2,2′-dimethyl-[1,1′-biphenyl]-3-carboxamide], the IC50 (as a rule, the midpoint of a concentration-inhibition curve) (IC50 range class) was more than 10000 nM.

`Cc1c(OCCCN2CC[C@@H](O)C2)cccc1-c1cccc(S(=O)(=O)NCCN2CC[C@@H](O)C2)c1C` [Example 3016, N-(2-((R)-3-hydroxypyrrolidin-1-yl)ethyl)-3′-(3-((R)-3-hydroxypyrrolidin-1-yl)propoxy)-2,2′-dimethyl-[1,1′-biphenyl]-3-sulfonamide]: the IC50 (IC50 range class) was more than 10000 nM.

For the compound `Cc1c(NC(=O)NCCN2CC[C@@H](O)C2)cccc1-c1cccc(OCCCN2CC[C@@H](O)C2)c1C` [Example 3017, 1-(2-((R)-3-hydroxypyrrolidin-1-yl)ethyl)-3-(3′-(3-((R)-3-hydroxypyrrolidin-1-yl)propoxy)-2,2′-dimethyl-[1,1′-biphenyl]-3-yl)urea], the IC50 (IC50 range class) lay in the range of 1000 to 10000 nM.

For the compound `Cc1c(NCCCN2CC[C@@H](O)C2)cccc1-c1cccc(OCCCN2CC[C@@H](O)C2)c1C` [Example 3018, (R)-1-(3-((3′-(3-((R)-3-hydroxypyrrolidin-1-yl)propoxy)-2,2′-dimethyl-[1,1′-biphenyl]-3-yl)amino)propyl)pyrrolidin-3-ol], where the note is “IC50 range class”, the IC50 is 90.1 to 1000 nM.

With `Cc1c(OCCCN2CC[C@@H](O)C2)cccc1-c1cccc(OCc2cccc(C#N)c2)c1C` [Example 3019, (R)-3-(((3′-(3-(3-hydroxypyrrolidin-1-yl)propoxy)-2,2′-dimethyl-[1,1′-biphenyl]-3-yl)oxy)methyl)benzonitrile], for the setting “numeric IC50”, the IC50 worked out at 106 nM.

In the case of `Cc1c(OCCCN2CC[C@@H](O)C2)cccc1-c1cccc(S(=O)(=O)NCCC(=O)O)c1C` [Example 3020, (R)-3-(3′-(3-(3-hydroxypyrrolidin-1-yl)propoxy)-2,2′-dimethyl-[1,1′-biphenyl]-3-ylsulfonamido)propanoic acid], the IC50 (IC50 range class) lay within 1000 to 10000 nM.

In the case of `Cc1ccccc1-c1ccc(OCCCN2CC[C@H](O)C2)c(OCCCN2CC[C@H](O)C2)c1` [Example 3021, (3S,3′S)-1,1′-(((2′-methyl-[1,1′-biphenyl]-3,4-diyl)bis(oxy))bis(propane-3,1-diyl))bis(pyrrolidin-3-ol)], the half-maximal inhibitory concentration (IC50) (IC50 range class) is more than 10000 nM.

Take `Cc1c(OCCCN2CC[C@@H](O)C2)cccc1-c1ccc(OCCCN2CC[C@H](O)C2)c(OCCCN2CC[C@H](O)C2)c1` [Example 3022, (3S,3′S)-1,1′-(((3′-(3-((R)-3-hydroxypyrrolidin-1-yl)propoxy)-2′-methyl-[1,1′-biphenyl]-3,4-diyl)bis(oxy))bis(propane-3,1-diyl))bis(pyrrolidin-3-ol)]: under “IC50 range class”, the IC50 was more than 10000 nM.

For `Cc1c(OCCCN2CC[C@@H](O)C2)cccc1-c1cccc(OCCCN2CC[C@@H](O)C2)c1` [Example 3023, (3R,3′R)-1,1′-(((2-methyl-[1,1′-biphenyl]-3,3′-diyl)bis(oxy))bis(propane-3,1-diyl))bis(pyrrolidin-3-ol)], the IC50 (IC50 range class) is 90.1 to 1000 nM.

On to `Cc1c(OCCCN2CC[C@@H](O)C2)cccc1-c1cccc(OCCCN2CC[C@@H](O)C2)c1Cl` [Example 3024, (3R,3′R)-1,1′-(((2-chloro-2′-methyl-[1,1′-biphenyl]-3,3′-diyl)bis(oxy))bis(propane-3,1-diyl))bis(pyrrolidin-3-ol)], for which, for the setting “numeric IC50”, the IC50 came to 12 nM.

Consider `Cc1c(OCCCN2CC[C@@H](O)C2)cccc1-c1cccc(OCCCN2CC[C@@H](O)C2)c1C#N` [Example 3025, 3,3′-bis(3-((R)-3-hydroxypyrrolidin-1-yl)propoxy)-2′-methyl-[1,1′-biphenyl]-2-carbonitrile], for which, where the note is “IC50 range class”, the IC50 lay within 90.1 to 1000 nM.

Turning to `Cc1c(OCCCN2CC[C@@H](O)C2)cccc1-c1cccc(OCCCN2CC[C@@H](O)C2)c1C(F)(F)F` [Example 3026, (3R,3′R)-1,1′-(((2-methyl-2′-(trifluoromethyl)-[1,1′-biphenyl]-3,3′-diyl)bis(oxy))bis(propane-3,1-diyl))bis(pyrrolidin-3-ol), 2 TFA], the IC50 (IC50 range class) lay in the range of 90.1 to 1000 nM.

For `Cc1c(OCCCN2CC[C@@H](O)C2)cccc1-c1cccc(OCCCc2ccccc2)c1` [Example 3027, (R)-1-(3-((2-methyl-3′-(3-phenylpropoxy)-[1,1′-biphenyl]-3-yl)oxy)propyl)pyrrolidin-3-ol], the IC50 (IC50 range class) is 1000 to 10000 nM.

As for `Cc1c(OCCCN2CC[C@@H](O)C2)cccc1-c1cccc(OCCCN2CCC(O)(c3ccccc3)C2)c1C` (stereo partly drawn) [Example 3028, 1-(3-((3′-(3-((R)-3-hydroxypyrrolidin-1-yl)propoxy)-2,2′-dimethyl-[1,1′-biphenyl]-3-yl)oxy)propyl)-3-phenylpyrrolidin-3-ol, 2 TFA], the half-inhibitory concentration (IC50) (IC50 range class) lay in the range of 20.1 to 90 nM.

For the compound `Cc1c(OCCCN2CC[C@@H](O)C2)cccc1-c1cccc(OCC2CCCN(C)C2)c1C` (stereo partly drawn) [Example 3029, (3R)-1-(3-((2,2′-dimethyl-3′-((1-methylpiperidin-3-yl)methoxy)-[1,1′-biphenyl]-3-yl)oxy)propyl)pyrrolidin-3-ol], the half-inhibitory concentration (IC50) (IC50 range class) lay within 0.04 to 20 nM.

Regarding `O[C@@H]1CCN(CCC2COc3ccc(-c4ccc5c(c4)OC(CCN4CC[C@@H](O)C4)CO5)cc3O2)C1` (stereo partly drawn) [Example 3032, (3R,3′R)-1,1′-((2,2′,3,3′-tetrahydro-[6,6′-bibenzo[b][1,4]dioxine]-3,3′-diyl)bis(ethane-2,1-diyl))bis(pyrrolidin-3-ol)], the half-maximal inhibitory concentration (IC50) (IC50 range class) was 20.1 to 90 nM.

As for `Cc1c(OCCCN2CC[C@@H](O)C2)cccc1-c1cccc(OCc2cccc(N)c2)c1C` [Example 3033, (R)-1-(3-((3′-((3-aminobenzyl)oxy)-2,2′-dimethyl-[1,1′-biphenyl]-3-yl)oxy)propyl)pyrrolidin-3-ol], the IC50 (IC50 range class) lay within 1000 to 10000 nM.

For the compound `Cc1c(OCCCN2CC[C@@H](O)C2)cccc1-c1cccc(OCCCN2CC[C@@H](F)C2)c1C` [Example 3035, (R)-1-(3-((3′-(3-((R)-3-fluoropyrrolidin-1-yl)propoxy)-2,2′-dimethyl-[1,1′-biphenyl]-3-yl)oxy)propyl)pyrrolidin-3-ol], the IC50 (IC50 range class) fell in the range of 0.04 to 20 nM.

For `Cc1cc(OCc2cccc(-c3cccc(COc4cc(C)c(CNC(C)(CO)CO)cc4C)c3C)c2C)c(C)cc1CNC(C)(CO)CO` [Example 5001, 2,2′-((((((2,2′-dimethyl-[1,1′-biphenyl]-3,3′-diyl)bis(methylene))bis(oxy))bis(2,5-dimethyl-4,1-phenylene))bis(methylene))bis(azanediyl))bis(2-methylpropane-1,3-diol)], the half-maximal inhibitory concentration (IC50) (IC50 range class) lay within 0.04 to 20 nM.

In the case of `Cc1cc(OCc2cccc(-c3cccc(COc4cc(C)c(CN5CCCC[C@H]5C(=O)O)cc4C)c3C)c2C)c(C)cc1CN1CCCC[C@H]1C(=O)O` [Example 5002, (2S,2′S)-1,1′-(((((2,2′-dimethyl-[1,1′-biphenyl]-3,3′-diyl)bis(methylene))bis(oxy))bis(2,5-dimethyl-4,1-phenylene))bis(methylene))bis(piperidine-2-carboxylic acid)], the IC50 (IC50 range class) fell in the range of 20.1 to 90 nM.

Consider `Cc1c(COc2cc(OCc3cc(F)cc(F)c3)c(CNC(CO)CO)cc2Cl)cccc1-c1cccc(COc2cc(OCc3cc(F)cc(F)c3)c(CNC(CO)CO)cc2Cl)c1C` [Example 5003, 2,2′-((((((2,2′-dimethyl-[1,1′-biphenyl]-3,3′-diyl)bis(methylene))bis(oxy))bis(5-chloro-2-((3,5-difluorobenzyl)oxy)-4,1-phenylene))bis(methylene))bis(azanediyl))bis(propane-1,3-diol)], for which the IC50 (IC50 range class) is 90.1 to 1000 nM.
